In ChEMBL document CHEMBL1136991, “Novel potent BRAF inhibitors: toward 1 nM compounds through optimization of the central phenyl ring” (J Med Chem, 2009):

Columns and labels:
[1] = target: Mitogen-activated protein kinase 14 (Homo sapiens) (UniProt Q16539); test: Inhibition of p38alpha at 1 uM relative to control
[2] = target: Mitogen-activated protein kinase 11 (Homo sapiens) (UniProt Q15759); test: Inhibition of p38beta at 1 uM relative to control
[3] = target: Serine/threonine-protein kinase pim-3 (Homo sapiens) (UniProt Q86V86); test: Inhibition of PIM3 at 1 uM relative to control
[4] = target: Tyrosine-protein kinase CSK (Homo sapiens) (UniProt P41240); test: Inhibition of CSK at 1 uM relative to control
[5] = target: Glycogen synthase kinase-3 beta (Homo sapiens) (UniProt P49841); test: Inhibition of GSK3-beta at 1 uM relative to control
[6] = target: Rho-associated protein kinase 2 (Homo sapiens) (UniProt O75116); test: Inhibition of ROCK2 at 1 uM relative to control
[7] = target: Ribosomal protein S6 kinase alpha-3 (Homo sapiens) (UniProt P51812); test: Inhibition of RSK2 at 1 uM relative to control
[8] = target: T1, Inhibitor of nuclear factor kappa-B kinase subunit beta (Homo sapiens) (UniProt O14920); test: Inhibition of IKK-beta at 1 uM relative to control
T1 sequence (whole entry): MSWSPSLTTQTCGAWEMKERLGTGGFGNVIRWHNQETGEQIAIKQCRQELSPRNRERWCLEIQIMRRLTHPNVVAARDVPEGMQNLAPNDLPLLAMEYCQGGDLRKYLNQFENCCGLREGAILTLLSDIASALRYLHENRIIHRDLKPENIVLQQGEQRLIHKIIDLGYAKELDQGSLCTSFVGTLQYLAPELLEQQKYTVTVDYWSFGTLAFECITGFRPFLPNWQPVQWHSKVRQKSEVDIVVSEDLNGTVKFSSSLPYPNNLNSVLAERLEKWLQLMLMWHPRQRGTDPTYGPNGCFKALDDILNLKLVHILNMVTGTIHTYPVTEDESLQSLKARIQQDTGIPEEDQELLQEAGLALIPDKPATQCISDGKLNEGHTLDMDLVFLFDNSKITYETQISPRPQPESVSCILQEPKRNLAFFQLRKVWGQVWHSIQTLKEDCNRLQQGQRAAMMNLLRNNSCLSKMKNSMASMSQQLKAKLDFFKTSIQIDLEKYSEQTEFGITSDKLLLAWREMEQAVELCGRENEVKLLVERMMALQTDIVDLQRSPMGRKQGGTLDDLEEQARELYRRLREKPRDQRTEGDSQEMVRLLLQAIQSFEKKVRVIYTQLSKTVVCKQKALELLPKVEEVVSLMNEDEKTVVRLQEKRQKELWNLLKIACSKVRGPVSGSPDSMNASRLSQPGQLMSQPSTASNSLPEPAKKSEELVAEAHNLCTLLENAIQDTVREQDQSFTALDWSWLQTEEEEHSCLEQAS

[9] = target: Ribosomal protein S6 kinase beta-1 (Homo sapiens) (UniProt P23443); test: Inhibition of S6K1 at 1 uM relative to control
[10] = target: Dual specificity tyrosine-phosphorylation-regulated kinase 1A (Homo sapiens) (UniProt Q13627); test: Inhibition of DYRK1A at 1 uM relative to control
[11] = target: MAP/microtubule affinity-regulating kinase 3 (Homo sapiens) (UniProt P27448); test: Inhibition of MARK3 at 1 uM relative to control
[12] = target: MAP kinase-interacting serine/threonine-protein kinase 2 (Homo sapiens) (UniProt Q9HBH9); test: Inhibition of MNK2 at 1 uM relative to control
[13] = target: Homeodomain-interacting protein kinase 2 (Homo sapiens) (UniProt Q9H2X6); test: Inhibition of HIPK2 at 1 uM relative to control
[14] = target: T2, Aurora kinase C (Homo sapiens) (UniProt Q9UQB9); test: Inhibition of Aurora C at 1 uM relative to control
T2 sequence (whole entry): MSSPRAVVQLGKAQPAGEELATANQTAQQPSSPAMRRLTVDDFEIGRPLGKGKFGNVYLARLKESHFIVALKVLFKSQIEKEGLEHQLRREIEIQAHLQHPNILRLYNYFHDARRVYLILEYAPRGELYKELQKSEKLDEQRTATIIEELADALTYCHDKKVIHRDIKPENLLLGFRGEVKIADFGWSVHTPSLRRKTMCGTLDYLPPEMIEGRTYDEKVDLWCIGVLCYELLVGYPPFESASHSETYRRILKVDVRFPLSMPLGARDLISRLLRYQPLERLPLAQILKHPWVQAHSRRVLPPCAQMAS

[15] = target: T3, Eukaryotic elongation factor 2 kinase (Homo sapiens) (UniProt O00418); test: Inhibition of EFK2 at 1 uM relative to control
T3 sequence (whole entry): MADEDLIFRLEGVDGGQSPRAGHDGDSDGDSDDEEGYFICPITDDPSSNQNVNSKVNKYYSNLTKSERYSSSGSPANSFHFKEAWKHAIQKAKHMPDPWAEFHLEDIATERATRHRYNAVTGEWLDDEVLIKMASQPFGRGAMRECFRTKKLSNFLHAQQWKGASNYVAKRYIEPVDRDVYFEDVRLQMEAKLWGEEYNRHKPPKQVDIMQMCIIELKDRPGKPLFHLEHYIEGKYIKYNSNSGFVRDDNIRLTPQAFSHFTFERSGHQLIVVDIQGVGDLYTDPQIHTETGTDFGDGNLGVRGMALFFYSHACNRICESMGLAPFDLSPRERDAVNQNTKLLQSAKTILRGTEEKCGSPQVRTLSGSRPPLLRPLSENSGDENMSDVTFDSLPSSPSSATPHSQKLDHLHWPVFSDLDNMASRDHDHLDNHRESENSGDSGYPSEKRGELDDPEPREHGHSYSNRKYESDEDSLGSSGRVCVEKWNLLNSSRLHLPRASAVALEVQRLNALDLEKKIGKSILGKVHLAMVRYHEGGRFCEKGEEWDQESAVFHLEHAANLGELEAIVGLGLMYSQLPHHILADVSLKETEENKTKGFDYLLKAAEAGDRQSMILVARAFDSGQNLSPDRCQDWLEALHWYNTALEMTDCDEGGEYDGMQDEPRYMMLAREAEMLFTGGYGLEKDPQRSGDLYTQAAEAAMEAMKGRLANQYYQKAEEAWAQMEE

[16] = target: Tyrosine-protein kinase Lck (Homo sapiens) (UniProt P06239); test: Inhibition of Lck at 1 uM relative to control
[17] = target: Aurora kinase B (Homo sapiens) (UniProt Q96GD4); test: Inhibition of Aurora B at 1 uM relative to control
Sequence of Aurora kinase B (Homo sapiens) (Q96GD4 whole entry): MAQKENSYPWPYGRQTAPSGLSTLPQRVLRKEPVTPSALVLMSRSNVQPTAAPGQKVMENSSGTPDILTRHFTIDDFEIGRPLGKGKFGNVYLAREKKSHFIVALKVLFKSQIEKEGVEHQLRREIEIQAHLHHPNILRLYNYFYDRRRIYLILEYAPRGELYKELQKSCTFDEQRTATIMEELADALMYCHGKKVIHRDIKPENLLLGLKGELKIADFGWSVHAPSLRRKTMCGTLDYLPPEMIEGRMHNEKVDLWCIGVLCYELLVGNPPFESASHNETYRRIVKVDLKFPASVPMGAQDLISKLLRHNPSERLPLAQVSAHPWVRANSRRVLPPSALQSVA

Sequence of Mitogen-activated protein kinase 14 (Homo sapiens) (Q16539 whole entry): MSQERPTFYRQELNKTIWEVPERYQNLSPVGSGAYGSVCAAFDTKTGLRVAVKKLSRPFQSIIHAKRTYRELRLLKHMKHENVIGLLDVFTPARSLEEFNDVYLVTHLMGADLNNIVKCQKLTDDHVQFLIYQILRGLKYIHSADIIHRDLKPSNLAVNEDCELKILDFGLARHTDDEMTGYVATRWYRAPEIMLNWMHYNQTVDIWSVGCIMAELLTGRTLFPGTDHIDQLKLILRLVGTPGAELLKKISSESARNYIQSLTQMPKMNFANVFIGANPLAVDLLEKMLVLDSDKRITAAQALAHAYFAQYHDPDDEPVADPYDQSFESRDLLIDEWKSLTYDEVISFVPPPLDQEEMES
Sequence of Ribosomal protein S6 kinase alpha-3 (Homo sapiens) (P51812 whole entry): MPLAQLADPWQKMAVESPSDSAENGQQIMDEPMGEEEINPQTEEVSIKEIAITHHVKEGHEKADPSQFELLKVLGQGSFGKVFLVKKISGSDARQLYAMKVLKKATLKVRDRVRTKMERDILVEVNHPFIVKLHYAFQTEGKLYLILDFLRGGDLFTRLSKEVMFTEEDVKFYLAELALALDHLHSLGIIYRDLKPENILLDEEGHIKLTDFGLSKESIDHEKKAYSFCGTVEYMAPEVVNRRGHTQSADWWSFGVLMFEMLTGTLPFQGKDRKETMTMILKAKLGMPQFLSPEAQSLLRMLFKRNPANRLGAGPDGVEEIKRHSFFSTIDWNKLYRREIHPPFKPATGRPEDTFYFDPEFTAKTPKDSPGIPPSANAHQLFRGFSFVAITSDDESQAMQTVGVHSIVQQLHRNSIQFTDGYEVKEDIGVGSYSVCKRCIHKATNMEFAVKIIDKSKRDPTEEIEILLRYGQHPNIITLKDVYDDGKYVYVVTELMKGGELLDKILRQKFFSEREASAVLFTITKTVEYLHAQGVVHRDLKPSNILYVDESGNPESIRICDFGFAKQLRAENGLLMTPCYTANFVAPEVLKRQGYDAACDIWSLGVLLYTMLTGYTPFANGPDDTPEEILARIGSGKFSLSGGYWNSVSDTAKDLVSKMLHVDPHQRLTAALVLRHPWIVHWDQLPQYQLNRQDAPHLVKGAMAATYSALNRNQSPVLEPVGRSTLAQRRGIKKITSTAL
Sequence of Glycogen synthase kinase-3 beta (Homo sapiens) (P49841 whole entry, looked up): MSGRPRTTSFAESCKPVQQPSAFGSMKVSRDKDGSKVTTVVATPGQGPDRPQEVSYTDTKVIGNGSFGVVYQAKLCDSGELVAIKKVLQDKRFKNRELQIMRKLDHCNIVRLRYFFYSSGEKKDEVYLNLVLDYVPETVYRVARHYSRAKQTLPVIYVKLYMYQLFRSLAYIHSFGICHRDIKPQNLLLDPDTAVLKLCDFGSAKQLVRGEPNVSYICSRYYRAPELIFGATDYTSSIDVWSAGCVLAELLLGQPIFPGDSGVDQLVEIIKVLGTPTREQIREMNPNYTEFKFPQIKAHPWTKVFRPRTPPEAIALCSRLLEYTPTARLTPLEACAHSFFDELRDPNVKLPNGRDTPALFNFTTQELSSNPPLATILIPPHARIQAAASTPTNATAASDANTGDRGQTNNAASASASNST
Sequence of Ribosomal protein S6 kinase beta-1 (Homo sapiens) (P23443 whole entry, looked up): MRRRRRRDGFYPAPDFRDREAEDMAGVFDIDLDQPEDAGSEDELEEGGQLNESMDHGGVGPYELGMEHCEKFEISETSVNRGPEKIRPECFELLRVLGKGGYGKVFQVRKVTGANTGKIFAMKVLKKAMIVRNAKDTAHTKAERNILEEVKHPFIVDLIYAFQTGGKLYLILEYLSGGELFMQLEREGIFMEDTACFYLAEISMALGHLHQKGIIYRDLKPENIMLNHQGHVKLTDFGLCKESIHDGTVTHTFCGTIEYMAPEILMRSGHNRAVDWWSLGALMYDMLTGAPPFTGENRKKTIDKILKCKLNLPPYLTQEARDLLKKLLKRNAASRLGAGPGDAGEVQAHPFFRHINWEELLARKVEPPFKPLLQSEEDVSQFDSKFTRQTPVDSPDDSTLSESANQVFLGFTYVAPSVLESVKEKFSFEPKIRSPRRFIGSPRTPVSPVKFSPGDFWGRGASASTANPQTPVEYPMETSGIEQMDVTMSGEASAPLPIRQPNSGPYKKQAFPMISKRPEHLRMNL
Sequence of Tyrosine-protein kinase CSK (Homo sapiens) (P41240 2-450 limits assumed): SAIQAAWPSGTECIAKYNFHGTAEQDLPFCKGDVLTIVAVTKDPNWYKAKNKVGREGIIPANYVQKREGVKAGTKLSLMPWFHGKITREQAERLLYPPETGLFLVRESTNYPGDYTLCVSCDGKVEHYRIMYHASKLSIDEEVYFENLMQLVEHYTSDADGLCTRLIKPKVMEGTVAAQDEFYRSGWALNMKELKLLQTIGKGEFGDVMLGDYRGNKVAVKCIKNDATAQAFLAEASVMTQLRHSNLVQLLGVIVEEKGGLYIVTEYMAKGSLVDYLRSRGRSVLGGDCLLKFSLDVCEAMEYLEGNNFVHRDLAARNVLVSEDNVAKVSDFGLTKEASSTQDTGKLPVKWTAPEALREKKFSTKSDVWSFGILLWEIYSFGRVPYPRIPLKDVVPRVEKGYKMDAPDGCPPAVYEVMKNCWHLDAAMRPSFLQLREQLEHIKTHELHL
Sequence of Rho-associated protein kinase 2 (Homo sapiens) (O75116 whole entry, looked up): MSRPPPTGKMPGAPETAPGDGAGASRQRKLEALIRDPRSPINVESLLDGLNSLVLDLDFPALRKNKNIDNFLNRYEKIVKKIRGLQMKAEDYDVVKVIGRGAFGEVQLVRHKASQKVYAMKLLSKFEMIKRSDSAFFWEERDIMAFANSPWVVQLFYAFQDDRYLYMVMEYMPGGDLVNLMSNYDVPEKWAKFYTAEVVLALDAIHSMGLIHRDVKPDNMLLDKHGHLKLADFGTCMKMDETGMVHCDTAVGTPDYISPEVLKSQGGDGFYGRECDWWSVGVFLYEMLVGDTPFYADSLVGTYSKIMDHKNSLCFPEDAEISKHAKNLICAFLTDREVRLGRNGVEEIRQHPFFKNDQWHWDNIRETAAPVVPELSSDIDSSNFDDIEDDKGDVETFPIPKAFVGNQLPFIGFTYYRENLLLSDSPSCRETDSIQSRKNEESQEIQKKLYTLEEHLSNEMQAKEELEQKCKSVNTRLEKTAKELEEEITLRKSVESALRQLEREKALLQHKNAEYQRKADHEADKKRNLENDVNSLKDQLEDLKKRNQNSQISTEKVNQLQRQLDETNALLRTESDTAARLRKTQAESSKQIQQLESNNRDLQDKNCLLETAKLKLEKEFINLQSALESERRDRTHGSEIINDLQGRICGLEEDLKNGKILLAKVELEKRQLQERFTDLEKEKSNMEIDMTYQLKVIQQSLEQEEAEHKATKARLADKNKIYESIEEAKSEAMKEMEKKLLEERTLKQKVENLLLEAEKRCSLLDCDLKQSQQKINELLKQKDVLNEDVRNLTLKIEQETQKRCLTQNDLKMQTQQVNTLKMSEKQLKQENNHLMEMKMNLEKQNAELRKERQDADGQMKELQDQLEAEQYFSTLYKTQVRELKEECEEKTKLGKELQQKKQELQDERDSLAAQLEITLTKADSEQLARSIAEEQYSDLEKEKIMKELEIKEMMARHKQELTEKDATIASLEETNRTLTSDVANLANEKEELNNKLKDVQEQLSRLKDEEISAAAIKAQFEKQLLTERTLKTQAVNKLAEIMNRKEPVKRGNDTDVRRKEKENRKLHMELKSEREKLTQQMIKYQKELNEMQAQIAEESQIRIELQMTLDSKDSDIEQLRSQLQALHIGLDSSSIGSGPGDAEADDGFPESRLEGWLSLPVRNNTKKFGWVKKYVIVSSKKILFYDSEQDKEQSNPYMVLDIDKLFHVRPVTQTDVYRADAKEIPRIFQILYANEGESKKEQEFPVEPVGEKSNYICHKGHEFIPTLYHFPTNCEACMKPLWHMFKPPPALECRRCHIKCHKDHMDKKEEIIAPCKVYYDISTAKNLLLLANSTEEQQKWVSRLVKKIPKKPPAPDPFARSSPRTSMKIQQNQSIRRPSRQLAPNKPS
Sequence of Mitogen-activated protein kinase 11 (Homo sapiens) (Q15759 whole entry): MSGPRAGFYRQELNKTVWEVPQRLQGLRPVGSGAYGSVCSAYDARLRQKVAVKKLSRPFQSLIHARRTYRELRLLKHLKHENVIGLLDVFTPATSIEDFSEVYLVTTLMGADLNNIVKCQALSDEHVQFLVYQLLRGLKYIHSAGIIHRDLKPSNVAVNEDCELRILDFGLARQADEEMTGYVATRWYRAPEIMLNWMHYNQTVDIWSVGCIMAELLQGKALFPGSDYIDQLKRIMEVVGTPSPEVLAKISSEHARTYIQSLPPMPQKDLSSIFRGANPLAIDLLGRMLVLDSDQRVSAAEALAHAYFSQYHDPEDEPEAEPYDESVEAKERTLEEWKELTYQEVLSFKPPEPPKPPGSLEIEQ

| SMILES | residual activity [1] | residual activity [2] | residual activity [3] | residual activity [4] | residual activity [5] | residual activity [6] | residual activity [7] | residual activity [8] | residual activity [9] | residual activity [10] | residual activity [11] | residual activity [12] | residual activity [13] | residual activity [14] | residual activity [15] | residual activity [16] | residual activity [17] |
| --- | --- | --- | --- | --- | --- | --- | --- | --- | --- | --- | --- | --- | --- | --- | --- | --- | --- |
| CSc1cc(Oc2ccnc3[nH]c(=O)[nH]c23)ccc1NC(=O)Nc1cccc(C(F)(F)F)c1 | < 25% | < 25% | 100% | < 25% | 100% | 75% | 100% | 100% | 100% | 100% | 75% | 100% | 75% | 50% | 100% | < 25% | < 25% |
| O=C(Nc1cc(C(F)(F)F)ccc1F)Nc1ccc(Oc2ccnc3[nH]c(=O)[nH]c23)c2ccccc12 | 100% | < 25% | 100% | < 25% | 75% | 75% | 100% | 100% | 75% | 100% | 75% | 100% | 100% | < 25% | 75% | < 25% | < 25% |
| CC(C)(C)c1cccc(NC(=O)Nc2ccc(Oc3ccnc4[nH]c(=O)[nH]c34)c3ccccc23)c1 | < 25% | < 25% | 75% | 50% | 75% | 75% | 75% | 75% | 100% | 100% | 100% | 100% | 75% | 75% | 100% | < 25% | 50% |
